According to the supplement of paper PMC10307832:

Experiments:
Assay in all cases: relative viability (nuclei count vs DMSO), 5 days (fraction); higher = more cells survive
R406 + Pemetrexed = compound: COc1cc(Nc2ncc(F)c(Nc3ccc4c(n3)NC(=O)C(C)(C)O4)n2)cc(OC)c1OC [R406] + Nc1nc2[nH]cc(CCc3ccc(C(=O)N[C@@H](CCC(=O)O)C(=O)O)cc3)c2c(=O)[nH]1 [Pemetrexed] (partner 0.2 µM)
How it was run: (§1)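 Relative viability was taken as the ratio of nuclei in treated wells to nuclei in vehicle wells. Lung cancer cell lines in 1536-well plates received compounds by pin tool one day after seeding, either one drug alone or a fixed anchor-drug dose plus five library-drug doses (not always all listed) in √10 steps. Nuclei were counted on 4× images after 5 days of treatment, and values are medians of duplicate plates.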

Daporinad + OSI-027 = compound: O=C(/C=C/c1cccnc1)NCCCCC1CCN(C(=O)c2ccccc2)CC1 [Daporinad] + COc1cccc2cc(-c3nc([C@H]4CC[C@H](C(=O)O)CC4)n4ncnc(N)c34)[nH]c12 [OSI-027] (partner 0.5 µM)
How it was run: as §1

Daporinad + Decitabine = compound: O=C(/C=C/c1cccnc1)NCCCCC1CCN(C(=O)c2ccccc2)CC1 [Daporinad] + Nc1ncn([C@H]2C[C@H](O)[C@@H](CO)O2)c(=O)n1 [Decitabine] (partner 2 µM)
How it was run: as §1

Daporinad + Olaparib = compound: O=C(/C=C/c1cccnc1)NCCCCC1CCN(C(=O)c2ccccc2)CC1 [Daporinad] + O=C(c1cc(Cc2n[nH]c(=O)c3ccccc23)ccc1F)N1CCN(C(=O)C2CC2)CC1 [Olaparib] (partner 8 µM)
How it was run: as §1

Row | Cell Line | relative viability (R406 + Pemetrexed; first compound 0.08 µM) | relative viability (R406 + Pemetrexed; first compound 0.253 µM) | relative viability (R406 + Pemetrexed; first compound 0.8 µM) | relative viability (R406 + Pemetrexed; first compound 2.53 µM) | relative viability (R406 + Pemetrexed; first compound 8 µM) | relative viability (Daporinad + OSI-027; first compound 0.0005 µM) | relative viability (Daporinad + OSI-027; first compound 0.001581 µM) | relative viability (Daporinad + OSI-027; first compound 0.005 µM) | relative viability (Daporinad + OSI-027; first compound 0.01581 µM) | relative viability (Daporinad + Decitabine; first compound 0.0005 µM) | relative viability (Daporinad + Decitabine; first compound 0.001581 µM) | relative viability (Daporinad + Decitabine; first compound 0.005 µM) | relative viability (Daporinad + Decitabine; first compound 0.01581 µM) | relative viability (Daporinad + Olaparib; first compound 0.0005 µM) | relative viability (Daporinad + Olaparib; first compound 0.001581 µM) | relative viability (Daporinad + Olaparib; first compound 0.005 µM) | relative viability (Daporinad + Olaparib; first compound 0.01581 µM)
1 | NCI-H650 | 0.912 | 1.13 | 0.953 | 0.779 | 0.591 | 0.477 | 0.415 | 0.525 | 0.626 | 0.307 | 0.387 | 0.351 | 0.323 | 0.358 | 0.462 | 0.346 | 0.285
2 | NCI-H2170 | 0.194 | 0.262 | 0.238 | 0.24 | 0.221 | 0.66 | 0.734 | 0.793 | 0.699 | 0.491 | 0.446 | 0.444 | 0.439 | 0.56 | 0.57 | 0.609 | 0.337
3 | NCI-H1793 | 0.711 | 1.09 | 1.15 | 0.147 | 0.157 | 0.25 | 0.252 | 0.343 | 0.254 | 0.45 | 0.496 | 0.489 | 0.564 | 0.829 | 0.952 | 0.81 | 0.835
4 | NCI-H2085 | 0.89 | 0.902 | 0.867 | 0.64 | 0.589 | 0.695 | 0.773 | 0.817 | 0.852 | 0.486 | – | 0.59 | 0.573 | 0.673 | – | 0.629 | 0.629
5 | NCI-H838 | 0.257 | 0.268 | 0.244 | 0.226 | 0.136 | 0.415 | 0.465 | 0.475 | 0.555 | 0.44 | 0.518 | 0.358 | 0.303 | 0.699 | 0.631 | 0.482 | 0.341
6 | NCI-H460 | 0.064 | 0.0593 | 0.0591 | 0.0591 | 0.0556 | 0.754 | 0.762 | 0.73 | 0.697 | 0.493 | 0.466 | 0.481 | 0.453 | 0.399 | 0.375 | 0.184 | 0.143
7 | LOU-NH91 | 0.362 | 0.399 | 0.37 | 0.455 | 0.38 | 0.732 | 0.779 | 0.772 | 0.83 | 0.824 | 0.837 | 0.877 | 0.947 | 0.874 | 0.977 | 0.803 | 0.837
8 | NCI-H3122 | 0.198 | 0.202 | 0.189 | 0.194 | 0.17 | 0.851 | 1.18 | 0.98 | 0.845 | 0.308 | 0.417 | 0.392 | 0.321 | 0.564 | 0.565 | 0.501 | 0.421
9 | NCI-H520 | 0.698 | 0.724 | 0.675 | 0.285 | 0.153 | 0.245 | 0.222 | 0.328 | 0.234 | 0.558 | 0.513 | 0.283 | 0.18 | 0.261 | 0.202 | 0.221 | 0.153
10 | NCI-H661 | 0.943 | 0.92 | 0.86 | 0.767 | 0.685 | 0.811 | 0.719 | 0.74 | 0.341 | 0.615 | 0.625 | 0.416 | 0.362 | 0.687 | 0.616 | 0.665 | 0.402
11 | NCI-H1734 | 0.394 | 0.417 | 0.453 | 0.45 | 0.322 | 0.569 | 0.676 | 0.674 | 0.527 | 0.488 | 0.494 | 0.394 | 0.32 | 0.567 | 0.443 | 0.327 | 0.241
12 | LXF-289 | 0.874 | 0.912 | 0.908 | 0.887 | 0.725 | 0.731 | 0.855 | 0.89 | 0.89 | 0.4 | 0.426 | 0.397 | 0.332 | 0.952 | 1.13 | 0.929 | 0.945
13 | H3255 | 0.547 | 0.588 | 0.606 | 0.521 | 0.49 | 0.476 | 0.596 | 0.587 | 0.633 | 0.464 | 0.605 | 0.863 | 0.816 | 0.534 | 0.58 | 0.526 | 0.594
14 | 201T | 0.322 | 0.359 | 0.322 | 0.309 | 0.294 | 0.745 | 0.612 | 0.794 | 0.795 | 0.849 | 0.917 | 0.832 | 0.881 | 0.802 | 0.856 | 0.807 | 0.806
15 | NCI-H2126 | 0.749 | 0.664 | 0.722 | 0.599 | 0.61 | 0.718 | 0.592 | 0.689 | 0.756 | 0.618 | 0.524 | 0.638 | 0.584 | 0.945 | 0.953 | 0.883 | 0.863
